# According to patent US8409166B2, “Method for pressure mediated selective delivery of therapeutic substances and cannula” (The United States of America as represented by the …, priority 1998, dated 2013):
# How the values were obtained:
# [1] = test system: intrahepatic tight junctions; assay: Constant pressure retrograde biliary infusion in mice (flow rate, resistance, paracellular leakage); conditions: for Ave Counts (paracellular leakage): Cholestatic 04 day mice
# Source text: FIG. 35 is a diagram of a working example of a system for constant-pressure intralumenal delivery. […] A working model was regulated using an adaptation of a Cole-Palmer pressure controller. Infusion fluid from the reservoir flows through capillary glass tubes 224 on its way to an infusion line 226. Flow rates may then be determined by tracking air bubbles 228 in the capillary glass tubes 224 with a ruler 229. A pressure sensor 230 detects the pressure of the infusion fluid at a location near the infusion line 226.
# To set up the system, fluid was added to the reservoir, and the system was rinsed and filled with fluid. The infusion line 226 was then surgically placed into the animal's organ. […] By adjusting the controller setting the desired pressure could be obtained at the pressure sensor, which was kept at the same height (z=0) as the animal. The reading at the pressure sensor was thus equal to the applied pressure (the pump pressure) plus the pressure head (the pressure increase due to the change in height between the top of the liquid level in the reservoir and the height of the infusion line). The infusion line was kept at the same height as the pressure sensor and the animal on the operating table. Alternate systems could be of course be adapted in which a constant pressure is maintained at the pressure sensor and not at the top of the Reservoir. This would be most important when a large volume of fluid is infused.
# The flow rate of infusion fluid was experimentally recorded in the following way: the cross sectional area of the bubble tube was determined by injecting a known volume of water (from syringe 232) into a measured length of the bubble tube. The cross sectional area was 0.0233 cm^2 (0.35 cc in 15 cm). When the flow started, an air bubble was slowly injected into the infusion fluid flow. The bubble then traveled down the bubble tube. At the end of the tube, the bubble would rise up into the bubble trap 234 and displace an equal volume of liquid. For each bubble 25 time points were recorded, on 1-cm intervals of ruler 229. The time versus distance that the bubble had traveled could be plotted and the slope of this line was the velocity of the bubble. Multiplying the slope by the cross sectional area of the bubble tube gave the average flow rate of the infusion fluid. This method of flow rate measurement is a working and experimental model for the purpose of illustration. In practice, flow rates may also be determined by ultrasonic or other methods known to those of skill in the art.
# Constant pressure infusion was evaluated in mice using the retrograde biliary infusion setup described previously. The constant pressure device was substituted for the microinfusion pump. […] Infusion flow rates were recorded using the bubble tube method described above. Blood samples were obtained and evaluated as described above.
# Solutes evaluated included sucrose (molecular weight 370), inulin (molecular weight 5,200), and Dextran (molecular weight 70,000).
# [2] = test system: interhepatocyte tight junctions; assay: Retrograde biliary infusion of lanthanum chloride, electron microscopy of intrahepatic distribution; assay type: in vivo, mice; conditions: 720 μl of 5 mM at 2 or 8 μl/second
# Method: Movement of fluid from the intralumenal space may conceivably occur either directly across physically opened tight junctions or indirectly by altered rates of transepithilial transcytosis. […] The ability of retrograde biliary infusion to disrupt tight junctions was evaluated by qualitative ultrastructural examination of the intrahepatic distribution of lanthanum chloride, a heavy metal normally impermeant to structurally intact tight junctions.
# Animals were infused retrograde with either 5 mM lanthanum chloride (Sigma) or 0.9% NaCl vehicle. Three infusions of 240 μl volume were administered per animal at a rate of 2 or 8 μl/second, with a 10 second pause between infusions. Freshly removed tissue was fixed overnight in 2% glutaraldehyde in 0.2 M cacodylate buffer. Following standard processing and embedding, 0.5 micrometer thick sections were stained with uranyl acetate and lead citrate. Sections were then examined using a Philips 201 Electron Microscope.
# [3] = test system: urinary bladder epithelial cell tight junctions; assay: Intralumenal delivery to the rabbit urinary bladder (electron and fluorescent microscopy); assay type: in vivo, Dutch Belted Rabbits; conditions: 5 mM, 10 minutes
# Source text: As an experimental model to mimic retrourethral delivery, male Dutch Belted Rabbits (1-2 Kg BW) had PE-50 tubing placed in the lumen of each […] and advanced so that the tips were within the lumen of the urinary bladder. One ureteral catheter was connected to a pressure transducer and used for recording intralumenal pressure. The other ureteral catheter was connected to a microinfusion pump. Microvascular clips were placed on the ureters to prevent retrograde reflux. The urethra was occluded using a vascular loop. 5 mM Lanthanum Chloride was infused so that the intralumenal pressure was either 25 mm Hg or 50 mm Hg.
# Tissues were removed 10 minutes later and processed for electron microscopy. […] Following the administration of 200 nm fluorescent latex microspheres at 50 mm-[…] intralumenal pressure, the urinary bladder was removed and processed for fresh-frozen sections.
# [4] = constant pressure retrograde biliary infusion
compound,measurement,setting,value
Dextran,appearance in systemic bloodstream,[1]; [4],detected in the systemic bloodstream
[Cl][La]([Cl])[Cl] [lanthanum chloride],electron dense deposits at bile ducts,[2],found within bile ducts but not in their adjacent subepithelial tissue compartments
same,electron dense deposits at canaliculi and subepithelial compartments,[2],"within biliary canaliculi, interhepatocyte cell spaces, and the perisinusoidal Space of Disse"
same,electron microscopy finding in urinary bladder,[3]; intralumenal pressure 25 mm Hg,electron dense deposits were detected in the intercellular spaces between epithelial cells
same,electron microscopy finding in urinary bladder,[3]; intralumenal pressure 50 mm Hg,some evidence of patchy epithelial denudation
[14C]-inulin,Ave Counts (paracellular leakage),[1]; 10 mmHg,27
same,Ave Counts (paracellular leakage),[1]; 20 mmHg,2534
same,Ave Counts (paracellular leakage),[1]; 40 mmHg,20134
same,appearance in systemic bloodstream,[1]; [4],detected in the systemic bloodstream
OC[C@H]1O[C@@](CO)(O[C@H]2O[C@H](CO)[C@@H](O)[C@H](O)[C@H]2O)[C@@H](O)[C@@H]1O [[14C]-sucrose],appearance in systemic bloodstream,"[1]; mouse, in vivo",detected in the systemic bloodstream
